± gives the standard deviation of the averaged measurements.
Key:
Experiment in all cases: level (log10 ratio to DMSO vehicle control); higher = higher biomarker level / cell amount than vehicle control
Details in all cases: in DMSO
[1] = compound: C=C(C)C(=O)OCC(F)(F)C(F)(F)C(F)(F)C(F)(F)C(F)(F)C(F)(F)C(F)(F)F
Procedure: (§1)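 BioMAP Diversity Plus panel of 12 human primary cell co-culture systems (3C, 4H, LPS, SAg, BT, BF4T, BE3C, CASM3C, HDF3CGF, KF3CT, MyoF, Mphg). Compounds were added 1 h before stimulation and left for 24 h (MyoF 48 h; BT 72 h for soluble read-outs or 6 d for IgG). Biomarkers were read by ELISA, cytotoxicity by SRB, PBMC viability and proliferation by Alamar Blue. Each well value was divided by the mean of 8 DMSO control wells on the same plate and log10 transformed; duplicate blinded samples were tested at 4 concentrations.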

[2] = compound: Cn1cnc([N+](=O)[O-])c1Sc1ncnc2[nH]cnc12 [Azathioprine]
Procedure: as §1

[3] = compound: OCC(F)(F)C(F)(F)C(F)(F)F [1H,1H-Heptafluorobutanol]
Procedure: as §1

[4] = compound: O=C(O)C(F)(F)C(F)(F)C(F)(F)C(F)(F)C(F)(F)C(F)(F)C(F)(F)C(F)(F)C(F)(F)C(F)(F)C(F)(F)C(F)(F)C(F)(F)F [Perfluorotetradecanoic acid]
Procedure: as §1

[5] = compound: O=C(O)C(F)(F)OC(F)(F)C(F)(F)OC(F)(F)C(F)(F)C(F)(F)C(F)(F)F [Perfluoro-3,6-dioxadecanoic acid]
Procedure: as §1

[6] = compound: O=C(O)CCC(F)(F)C(F)(F)C(F)(F)F [3:3 Fluorotelomer carboxylic acid]
Procedure: as §1

[7] = compound: CCCCCCCCC(F)(F)C(F)(F)C(F)(F)C(F)(F)C(F)(F)C(F)(F)F [1-(Perfluorohexyl)octane]
Procedure: as §1

Test System | level (log10) ([1]; 6700 nM) | level (log10) ([1]; 20000 nM) | level (log10) ([2]; 1400 nM) | level (log10) ([2]; 4200 nM) | level (log10) ([2]; 13000 nM) | level (log10) ([2]; 38000 nM) | level (log10) ([3]; 6700 nM) | level (log10) ([3]; 20000 nM) | level (log10) ([3]; 60000 nM) | level (log10) ([4]; 6700 nM) | level (log10) ([4]; 20000 nM) | level (log10) ([5]; 6700 nM) | level (log10) ([5]; 20000 nM) | level (log10) ([5]; 60000 nM) | level (log10) ([6]; 6700 nM) | level (log10) ([6]; 20000 nM) | level (log10) ([6]; 60000 nM) | level (log10) ([7]; 6700 nM) | level (log10) ([7]; 20000 nM)
MyoF:Collagen III | -0.014 ± 0.0014 | -0.014 ± 0.0042 | -0.019 ± 0.021 | -0.0135 ± 0.016 | -0.0275 ± 0.0064 | -0.0115 ± 0.0092 | 0.0065 ± 0.0035 | -0.0065 ± 0.005 | -0.0065 ± 0.0064 | -0.015 | -0.002 ± 0.03 | -0.024 ± 0.0057 | -0.0445 ± 0.0035 | -0.317 ± 0.014 | -0.0125 ± 0.005 | -0.005 ± 0.011 | -0.0145 ± 0.0064 | 0.019 ± 0.03 | -0.016 ± 0.0014
MyoF:Collagen IV | -0.0155 ± 0.0064 | 0.0195 ± 0.016 | 0.008 ± 0.0042 | 0.0065 ± 0.0092 | -0.013 ± 0.013 | 0.02 ± 0.016 | -0.0305 ± 0.025 | -0.037 ± 0.033 | -0.029 ± 0.0071 | -0.002 ± 0.0071 | 0.023 ± 0.016 | 0.0055 ± 0.013 | 0.0345 ± 0.019 | 0.235 ± 0.011 | -0.0275 ± 0.042 | -0.029 ± 0.031 | -0.004 ± 0.035 | 0.0135 ± 0.0064 | 0.0505 ± 0.069
MyoF:Decorin | -0.011 ± 0.04 | 0.0175 ± 0.081 | -0.007 ± 0.024 | -0.009 ± 0.023 | -0.0165 ± 0.015 | -0.013 ± 0.018 | 0.0055 ± 0.0064 | 0.013 ± 0.016 | 0.02 ± 0.03 | 0.033 ± 0.027 | 0.0515 ± 0.026 | 0.0005 ± 0.0021 | 0.023 ± 0.014 | -0.021 ± 0.027 | -0.024 ± 0.0028 | -0.0115 ± 0.015 | -0.004 ± 0.024 | 0.005 ± 0.011 | 0.0265 ± 0.032
MyoF:MMP-1 | -0.0245 ± 0.0092 | 0.0025 ± 0.086 | 0.0065 ± 0.047 | 0.0165 ± 0.019 | -0.0215 ± 0.021 | 0.0315 ± 0.0021 | -0.031 ± 0.0057 | -0.019 ± 0.011 | 0.012 ± 0.081 | -0.0305 ± 0.015 | 0.002 ± 0.017 | -0.003 ± 0.0085 | -0.03 ± 0.024 | 0.0505 ± 0.0064 | -0.0385 ± 0.052 | -0.0305 ± 0.013 | 0.01 ± 0.028 | -0.002 ± 0.017 | -0.01 ± 0.0085
MyoF:PAI-I | 0.0005 ± 0.011 | 0.005 ± 0.0042 | -0.004 ± 0.0085 | -0.0025 ± 0.0064 | -0.0015 ± 0.005 | 0 ± 0.0085 | 0.0065 ± 0.0035 | 0.002 ± 0.0071 | -0.001 | 0.0115 ± 0.0064 | 0.006 | 0.001 ± 0.0014 | -0.0005 ± 0.0092 | -0.015 ± 0.0057 | -0.0055 ± 0.005 | -0.003 | 0.003 ± 0.0042 | -0.008 ± 0.0014 | -0.007 ± 0.0042
MyoF:SRB | -0.0005 ± 0.0021 | -0.0065 ± 0.0064 | -0.0055 ± 0.0092 | 0.0015 ± 0.0021 | 0.0005 ± 0.0035 | -0.015 ± 0.0057 | 0.0015 ± 0.00071 | -0.004 ± 0.0028 | -0.004 ± 0.0057 | 0.0025 ± 0.0021 | 0.0055 ± 0.0078 | 0 | -0.002 | -0.0515 ± 0.0092 | 0.0005 ± 0.0021 | 0 ± 0.0028 | -0.0065 ± 0.012 | 0.011 ± 0.016 | 0.006 ± 0.0042
MyoF:TIMP-1 | 0.0225 ± 0.029 | 0.035 ± 0.017 | -0.0225 ± 0.04 | -0.056 ± 0.057 | 0.013 ± 0.068 | 0.016 ± 0.071 | 0.0115 ± 0.028 | 0.014 ± 0.035 | 0.025 ± 0.03 | 0.0075 ± 0.049 | 0.0345 ± 0.013 | 0.044 ± 0.03 | 0.174 ± 0.031 | 0.164 ± 0.0014 | -0.053 ± 0.067 | -0.033 ± 0.059 | -0.0275 ± 0.074 | -0.0265 ± 0.015 | -0.0465 ± 0.023

Source: the supplement of paper PMC10331698
